Assay results: paper PMC9182405, “Rapid Screening of Lipase Inhibitors in Scutellaria baicalensis by Using Porcine Pancreatic Lipase Immobilized on Magnetic Core–Shell Metal–Organic Frameworks” (Molecules, 2022)

Columns and labels:
[1] = target: T1, porcine pancreatic lipase (PPL) (Sus scrofa, UniProt P00591); test: p-nitrophenol ester hydrolysis assay, absorbance at […] nm, free PPL; also ligand fishing with immobilized PPL; type: biochemical
T1 construct: gene PNLIP

[2] = target: T1, porcine pancreatic lipase (PPL); test: p-nitrophenol ester hydrolysis assay, absorbance at […] nm, free PPL; in ligand fishing some nonspecific adsorption to blank MMOF; type: biochemical

T1 sequence (P00591 whole entry): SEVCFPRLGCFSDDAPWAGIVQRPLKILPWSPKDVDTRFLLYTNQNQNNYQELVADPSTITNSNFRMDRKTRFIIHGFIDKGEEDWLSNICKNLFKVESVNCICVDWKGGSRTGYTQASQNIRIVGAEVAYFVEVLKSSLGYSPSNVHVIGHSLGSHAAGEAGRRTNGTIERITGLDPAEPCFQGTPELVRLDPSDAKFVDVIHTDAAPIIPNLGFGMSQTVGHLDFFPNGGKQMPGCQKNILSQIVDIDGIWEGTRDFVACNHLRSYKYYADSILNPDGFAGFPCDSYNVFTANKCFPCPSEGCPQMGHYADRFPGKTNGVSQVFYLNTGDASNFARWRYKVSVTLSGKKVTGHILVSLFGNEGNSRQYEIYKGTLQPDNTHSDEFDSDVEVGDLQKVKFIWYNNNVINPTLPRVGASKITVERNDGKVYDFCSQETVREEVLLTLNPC

| SMILES | IC50 [1] | IC50 [2] |
| --- | --- | --- |
| O=C(O)[C@H]1O[C@@H](Oc2cc3oc(-c4ccccc4)cc(=O)c3c(O)c2O)[C@H](O)[C@@H](O)[C@@H]1O [compound 3, Baicalin] | 242 ± 5.6 µM | – |
| COc1c(O)cc(O)c2c(=O)cc(-c3ccccc3)oc12 [compound 7, Wogonin] | – | 168 ± 8.4 µM |
| COc1c(O)cc2oc(-c3ccccc3)cc(=O)c2c1O [compound 8, Oroxylin A] | 82.7 ± 3.6 µM | – |
